One assay addresses T1, 3-oxo-5-alpha-steroid 4-dehydrogenase 1 (Homo sapiens, UniProt P18405).
T1 sequence (P18405 whole entry): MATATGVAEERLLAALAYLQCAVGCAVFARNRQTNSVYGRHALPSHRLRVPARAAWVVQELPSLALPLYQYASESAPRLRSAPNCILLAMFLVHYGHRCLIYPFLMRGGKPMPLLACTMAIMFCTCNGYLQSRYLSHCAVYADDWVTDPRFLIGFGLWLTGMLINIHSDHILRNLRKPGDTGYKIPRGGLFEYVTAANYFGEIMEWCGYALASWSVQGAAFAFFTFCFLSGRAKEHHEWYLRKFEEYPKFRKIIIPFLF
The experiment in a line: In vitro inhibition of DHT production in Hs 68 (human genital fibroblast) cells.
In the case of `CN1C(=O)CCC2(C)C1=CCc1cc(Cl)ccc12` (stereo not drawn), half-maximal inhibition (IC50) required 120 nM.

`Cc1ccc2c(c1)CC[C@@H]1[C@@H]2CCC(=O)N1C` yielded an IC50 of 11 nM.

`CC(C)(C)NC(=O)[C@H]1CC[C@H]2[C@@H]3CC=C4C=C(C(=O)O)CC[C@]4(C)[C@H]3CC[C@]12C` [EPRISTERIDE]: the IC50 was determined as 7500 nM.

Consider `O=C1CCC2=C(CCc3cccc(F)c32)N1`, for which 10000 nM corresponded to half-maximal inhibition (IC50).

`O=C1CCC2=C(CCc3ccc(F)cc32)N1` came in with an IC50 of 2300 nM.

`O=C1CCC2=C(CCc3ccccc32)N1` showed an IC50 of 6500 nM. This IC50 lies about 2.8-fold higher than the previous one.

In turn, `C[C@]12CCC(=O)N[C@@H]1CCc1cc(Cl)ccc12` registered an IC50 of 1800 nM. Compared with the last molecule, the IC50 is about 3.6-fold lower.

With `COc1ccc2c(c1)CC[C@@H]1[C@@H]2CCC(=O)N1C`, the midpoint of inhibition, the IC50, lay at 120 nM.

Take `O=C1CCC2=C(CCc3cc(F)ccc32)N1`: the IC50 stood at 600 nM. Compared with the last molecule, the IC50 is about 5-fold higher.

For `CN1C(=O)CC[C@]2(C)c3ccc(Cl)cc3CC[C@@H]12`, inhibition was half-maximal at 17 nM (IC50).

Turning to `CN1C(=O)CCC2=C1CCc1cc(Cl)ccc12`, inhibition was half-maximal at 30 nM (IC50).

In the case of `CN1C(=O)CC[C@@H]2c3ccccc3CC[C@H]21`, the half-maximal inhibitory concentration (IC50) turned out to be 560 nM.

`CN1C(=O)CC[C@@H]2c3ccc(Cl)cc3CC[C@@H]21` showed an IC50 of 41 nM.

In turn, `O=C1CC[C@@H]2c3ccc(Cl)cc3CC[C@H]2N1` came in with an IC50 of 60 nM. This IC50 and that of the molecule before are within 1.5-fold of each other.

The molecule `CN1C(=O)CC[C@@H]2c3ccc(Cl)cc3CC[C@H]21` [BEXLOSTERIDE] returned an IC50 of 8 nM.

`CC12CCC(=O)NC1=CCc1cc(Cl)ccc12` (stereo not drawn) displayed an IC50 of 3600 nM.

Molecule `CN1C(=O)CC[C@@H]2c3ccc(F)cc3CC[C@H]21` registered an IC50 of 35 nM.

For `O=C1CCC2=C(CCc3c(F)cccc32)N1`, the concentration for half-maximal inhibition (IC50) was found to be 3200 nM. Against the preceding molecule, the IC50 is about 91-fold higher.

`CN1C(=O)CC[C@@H]2c3ccc(F)cc3CC[C@@H]21` displayed an IC50 of 320 nM.

`O=C1CCC2=C(CCc3cc(Cl)ccc32)N1` gave an IC50 of 460 nM.

A further assay concerns the target T1, 3-oxo-5-alpha-steroid 4-dehydrogenase 1. The experiment in a line: Compound was tested for inhibition of Type I 5-alpha-reductase in Human genital skin (Hs68) foreskin fibroblast cells. It counts as cell-based.
The molecule `CC(C)(C)NC(=O)[C@H]1CC[C@H]2[C@@H]3CC[C@H]4NC(=O)C=C[C@]4(C)[C@H]3CC[C@]12C` [FINASTERIDE] registered an IC50 of 62 nM. That is a double-digit nanomolar value.

Another assay addresses T2, 3-oxo-5-alpha-steroid 4-dehydrogenase 2 (Homo sapiens, UniProt P31213).
T2 sequence (P31213 whole entry): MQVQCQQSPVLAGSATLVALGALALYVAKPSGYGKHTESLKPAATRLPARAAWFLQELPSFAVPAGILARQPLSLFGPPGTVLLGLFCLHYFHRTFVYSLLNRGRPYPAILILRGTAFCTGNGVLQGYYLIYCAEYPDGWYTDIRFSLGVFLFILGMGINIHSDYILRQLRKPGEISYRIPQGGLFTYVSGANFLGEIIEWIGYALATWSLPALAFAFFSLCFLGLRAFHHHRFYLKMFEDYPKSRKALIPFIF
As to the kind of experiment: Compound was tested for inhibition of Type II 5-alpha-reductase in Human Prostate Homogenates (HPH).
`CC(C)(C)NC(=O)[C@H]1CC[C@H]2[C@@H]3CC=C4C=C(C(=O)O)CC[C@]4(C)[C@H]3CC[C@]12C` [EPRISTERIDE] came in with an IC50 of 8 nM.

For the molecule `CN1C(=O)CC[C@@H]2c3ccc(Cl)cc3CC[C@H]21` [BEXLOSTERIDE], the IC50 was over 10000 nM.
